± gives the standard deviation of the averaged measurements.
How the values were obtained:
Assay in all cases: level (log10 ratio to DMSO vehicle control); higher = higher biomarker level / cell amount than vehicle control
Conditions in all cases: in DMSO
[1] = compound: Cc1ccc(S(=O)(=O)OCC(F)(F)C(F)(F)C(F)(F)C(F)(F)C(F)(F)C(F)F)cc1 [1H,1H,7H-Perfluoroheptyl 4-methylbenzenesulfonate]
Method: (§1)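 BioMAP Diversity Plus panel of 12 human primary cell co-culture systems (3C, 4H, LPS, SAg, BT, BF4T, BE3C, CASM3C, HDF3CGF, KF3CT, MyoF, Mphg). Compounds were added 1 h before stimulation and left for 24 h (MyoF 48 h; BT 72 h for soluble read-outs or 6 d for IgG). Biomarkers were read by ELISA, cytotoxicity by SRB, PBMC viability and proliferation by Alamar Blue. Each well value was divided by the mean of 8 DMSO control wells on the same plate and log10 transformed; duplicate blinded samples were tested at 4 concentrations.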

[2] = compound: O=P(O)(O)CCC(F)(F)C(F)(F)C(F)(F)C(F)(F)C(F)(F)C(F)(F)F [2-(Perfluorohexyl)ethylphosphonic acid]
Method: as §1

[3] = compound: OCC(F)(F)C(F)(F)C(F)(F)C(F)(F)C(F)(F)C(F)(F)C(F)(F)C(F)(F)C(F)(F)C(F)(F)C(F)(F)F [11:1 Fluorotelomer alcohol]
Method: as §1

[4] = compound: OCC(F)(F)C(F)(F)C(F)(F)C(F)(F)C(F)(F)C(F)(F)C(F)(F)C(F)(F)CO [1H,1H,10H,10H-Perfluorodecane-1,10-diol]
Method: as §1

Tetrafluorosuccinic acid = compound: O=C(O)C(F)(F)C(F)(F)C(=O)O [Tetrafluorosuccinic acid]
Method: as §1

Perfluoropinacol = compound: OC(C(F)(F)F)(C(F)(F)F)C(O)(C(F)(F)F)C(F)(F)F [Perfluoropinacol]
Method: as §1

[5] = compound: C=CC(=O)OCC(F)(F)C(F)(F)C(F)(F)C(F)(F)C(F)(F)C(F)(F)C(F)(F)C(F)F [1H,1H,9H-Perfluorononyl acrylate]
Method: as §1

Test System	level (log10) ([1]; 6700 nM)	level (log10) ([1]; 20000 nM)	level (log10) ([1]; 60000 nM)	level (log10) ([2]; 6700 nM)	level (log10) ([2]; 20000 nM)	level (log10) ([2]; 60000 nM)	level (log10) ([3]; 1100 nM)	level (log10) ([3]; 3300 nM)	level (log10) ([3]; 10000 nM)	level (log10) ([4]; 6700 nM)	level (log10) ([4]; 20000 nM)	level (log10) ([4]; 60000 nM)	level (log10) (Tetrafluorosuccinic acid; 6700 nM)	level (log10) (Tetrafluorosuccinic acid; 20000 nM)	level (log10) (Tetrafluorosuccinic acid; 60000 nM)	level (log10) (Perfluoropinacol; 6700 nM)	level (log10) (Perfluoropinacol; 20000 nM)	level (log10) ([5]; 6700 nM)	level (log10) ([5]; 20000 nM)	level (log10) ([5]; 60000 nM)
LPS:CD142/Tissue Factor	-0.0355 ± 0.11	-0.022 ± 0.065	0.161 ± 0.039	0.0045 ± 0.1	0.054 ± 0.047	0.119 ± 0.052	0.056 ± 0.0028	0.084 ± 0.03	0.0995 ± 0.00071	0 ± 0.038	0.0125 ± 0.069	-0.035	-0.001 ± 0.047	-0.0155 ± 0.079	0.014 ± 0.037	-0.0795 ± 0.0035	-0.038 ± 0.02	0.019 ± 0.025	0.0415 ± 0.026	-0.015 ± 0.013
4H:CD62P/P-selectin	0.052 ± 0.033	0.002 ± 0.035	0.149 ± 0.012	0.022 ± 0.0042	-0.01 ± 0.017	-0.0585 ± 0.021	-0.111 ± 0.042	-0.095 ± 0.079	-0.139 ± 0.13	-0.029 ± 0.052	-0.07 ± 0.083	-0.169	0.001 ± 0.017	-0.011 ± 0.0042	-0.0005 ± 0.015	-0.0165 ± 0.022	-0.217 ± 0.06	-0.0135 ± 0.037	-0.045 ± 0.011	-0.109
4H:CD106/VCAM-1	-0.0065 ± 0.0078	-0.032 ± 0.013	-0.0295 ± 0.011	0.0205 ± 0.0064	0.025 ± 0.0085	-0.01 ± 0.0028	0.0285 ± 0.022	0.0115 ± 0.057	0.024 ± 0.038	-0.0445 ± 0.011	-0.049 ± 0.03	-0.166	0.029 ± 0.033	0.0065 ± 0.005	0.0485 ± 0.018	-0.043 ± 0.018	-0.22 ± 0.02	-0.02 ± 0.0071	-0.023 ± 0.0028	-0.0425 ± 0.03
BF4T:CCL2/MCP-1	-0.026 ± 0.018	-0.124 ± 0.0085	-0.0585 ± 0.022	0.001 ± 0.0028	0.0015 ± 0.023	-0.009 ± 0.0028	0.018 ± 0.042	0.0235 ± 0.021	0.031 ± 0.023	-0.0755 ± 0.05	-0.273 ± 0.049	-0.329	-0.007 ± 0.0028	-0.0135 ± 0.0064	-0.0215 ± 0.016	0.0435 ± 0.032	-0.0175 ± 0.015	-0.015 ± 0.047	-0.0035 ± 0.0035	0.0155 ± 0.026
LPS:CD62E/E-Selectin	0.001 ± 0.0057	0.012 ± 0.027	0.0375 ± 0.0078	-0.0005 ± 0.015	-0.004 ± 0.011	0.0465 ± 0.012	0.016 ± 0.0085	0.01 ± 0.0099	0.015 ± 0.014	-0.064 ± 0.04	-0.0475 ± 0.0021	-0.038	0.0155 ± 0.036	0.003 ± 0.011	0.0275 ± 0.013	0.003 ± 0.0085	-0.027 ± 0.028	-0.002 ± 0.027	0.0165 ± 0.026	-0.008
BT:PBMC Cytotoxicity	-0.017 ± 0.0057	0.008 ± 0.0014	-0.017	0.0025 ± 0.053	0.0325 ± 0.021	0.07 ± 0.047	-0.073 ± 0.044	-0.09 ± 0.038	-0.0775 ± 0.019	0.0065 ± 0.026	-0.012 ± 0.0085	-0.246	0.0305 ± 0.012	0.026 ± 0.0042	0.024 ± 0.014	0.011 ± 0.017	-0.0095 ± 0.023	-0.047 ± 0.0085	-0.1 ± 0.0085	-0.287 ± 0.1
3C:CD87/uPAR	-0.018 ± 0.0014	0.004 ± 0.017	-0.027 ± 0.024	0.0365 ± 0.03	0.0125 ± 0.00071	-0.0385 ± 0.0092	-0.024 ± 0.023	-0.013 ± 0.024	-0.003 ± 0.011	-0.063 ± 0.064	-0.051 ± 0.075	-0.165	-0.022 ± 0.024	-0.0085 ± 0.0078	-0.019 ± 0.033	-0.159 ± 0.04	-0.29 ± 0.022	0.012 ± 0.04	0.016 ± 0.013	0.017 ± 0.0099
4H:CCL26/Eotaxin-3	0.007 ± 0.0057	-0.0015 ± 0.013	-0.057 ± 0.052	-0.052 ± 0.09	-0.0765 ± 0.066	0 ± 0.018	0.0025 ± 0.0035	-0.0055 ± 0.0092	-0.0085 ± 0.0078	-0.005 ± 0.037	-0.0125 ± 0.035	-0.179	0.0025 ± 0.049	-0.037 ± 0.064	0.0315 ± 0.018	-0.03 ± 0.048	-0.179 ± 0.037	-0.0045 ± 0.0035	-0.016 ± 0.031	-0.052 ± 0.024
BF4T:CXCL8/IL-8	-0.0195 ± 0.012	-0.0615 ± 0.012	-0.0515 ± 0.011	-0.0405 ± 0.00071	-0.0595 ± 0.0064	-0.034 ± 0.0085	0.001 ± 0.0057	0.0145 ± 0.037	0.028 ± 0.042	0.0005 ± 0.0064	0.0095 ± 0.00071	0.004	0.0235 ± 0.0064	0.016 ± 0.038	0.029 ± 0.023	0.081 ± 0.024	0.0865 ± 0.032	-0.0025 ± 0.061	0.0315 ± 0.053	0.0175 ± 0.012
BT:B cell Proliferation	-0.0165 ± 0.012	0.011 ± 0.0028	-0.034 ± 0.0057	0.031 ± 0.0071	0.0135 ± 0.00071	0.051 ± 0.021	-0.103 ± 0.023	-0.144 ± 0.026	-0.44 ± 0.42	0.0155 ± 0.00071	0.0195 ± 0.0078	-0.316	-0.0055 ± 0.035	0.0075 ± 0.019	0.0285 ± 0.00071	-0.0065 ± 0.0064	-0.085 ± 0.034	-0.034 ± 0.0042	-0.0415 ± 0.0035	-0.253 ± 0.15
BF4T:CD90	-0.0095 ± 0.0064	-0.015 ± 0.014	-0.0175 ± 0.0092	-0.0185 ± 0.023	-0.0165 ± 0.005	-0.008 ± 0.031	0.0025 ± 0.011	-0.0025 ± 0.011	0.002 ± 0.0042	-0.051 ± 0.0014	-0.071 ± 0.0099	-0.018	-0.0115 ± 0.012	-0.015 ± 0.024	-0.017 ± 0.0042	-0.015 ± 0.017	-0.024 ± 0.0071	-0.0085 ± 0.016	0.005 ± 0.0071	-0.022 ± 0.0071
3C:Proliferation	-0.02 ± 0.014	-0.033 ± 0.014	-0.12 ± 0.086	-0.066 ± 0.057	-0.035 ± 0.017	-0.101 ± 0.081	-0.189 ± 0.012	-0.436 ± 0.042	-0.338 ± 0.051	-0.047 ± 0.068	-0.0735 ± 0.06	-0.403	-0.0155 ± 0.028	-0.01 ± 0.0014	-0.0265 ± 0.021	-0.151 ± 0.0028	-0.441 ± 0.086	-0.092 ± 0.031	-0.186 ± 0.021	-0.415 ± 0.013
LPS:CCL2/MCP-1	-0.013 ± 0.0057	-0.01 ± 0.0071	-0.004 ± 0.013	-0.016	-0.0075 ± 0.005	-0.0105 ± 0.019	-0.001 ± 0.0028	-0.011 ± 0.011	-0.009 ± 0.035	-0.0035 ± 0.00071	-0.0135 ± 0.015	0.01	-0.02 ± 0.0085	-0.027 ± 0.014	-0.0095 ± 0.043	0.0205 ± 0.00071	-0.103 ± 0.0078	-0.023 ± 0.021	-0.007 ± 0.045	-0.055 ± 0.0085

Reference: the supplement of paper PMC10331698
